Assay results published in patent US7378440B2, “Substituted benzoylureido-o-benzoylamides, process for their preparation and their use” (Sanofi-Aventis Deutschland GmbH, priority 2003, dated 2008).

How the values were obtained:
[1] = molecular target: T1, human glycogen phosphorylase a (Homo sapiens, UniProt P06737); test: Glycogen phosphorylase a activity assay; assay type: biochemical; conditions: inhibition of GPa measured in reverse direction (glycogen synthesis from glucose 1-phosphate, liberated phosphate, absorption 820 nm)
T1 sequence (P06737 1-847): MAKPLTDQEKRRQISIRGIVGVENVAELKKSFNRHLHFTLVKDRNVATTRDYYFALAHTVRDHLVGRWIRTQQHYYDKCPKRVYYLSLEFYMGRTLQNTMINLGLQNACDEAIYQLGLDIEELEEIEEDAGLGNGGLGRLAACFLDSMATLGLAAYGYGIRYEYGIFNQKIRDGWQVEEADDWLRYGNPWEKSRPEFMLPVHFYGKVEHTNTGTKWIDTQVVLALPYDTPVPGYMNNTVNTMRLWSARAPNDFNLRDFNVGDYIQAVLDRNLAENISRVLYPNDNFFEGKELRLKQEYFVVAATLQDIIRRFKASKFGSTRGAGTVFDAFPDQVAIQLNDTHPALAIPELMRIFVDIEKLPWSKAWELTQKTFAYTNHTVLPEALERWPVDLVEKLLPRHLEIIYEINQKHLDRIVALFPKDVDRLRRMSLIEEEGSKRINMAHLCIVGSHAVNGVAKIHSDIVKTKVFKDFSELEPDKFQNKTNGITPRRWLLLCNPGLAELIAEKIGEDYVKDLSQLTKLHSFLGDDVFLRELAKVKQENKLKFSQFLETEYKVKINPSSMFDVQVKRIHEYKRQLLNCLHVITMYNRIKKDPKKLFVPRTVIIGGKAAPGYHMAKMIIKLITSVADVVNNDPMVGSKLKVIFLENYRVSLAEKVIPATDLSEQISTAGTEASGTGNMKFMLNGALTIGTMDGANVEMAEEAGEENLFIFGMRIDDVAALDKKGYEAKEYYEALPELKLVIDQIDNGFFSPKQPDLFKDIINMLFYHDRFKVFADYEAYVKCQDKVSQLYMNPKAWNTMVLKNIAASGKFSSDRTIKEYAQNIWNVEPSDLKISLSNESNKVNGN
Description: Glycogen Phosphorylase a Activity Assay
The effect of compounds on the activity of the active form of glycogen phosphorylase (GPa) was measured in the reverse direction by following the synthesis of glycogen from glucose 1-phosphate by determining the liberation of inorganic phosphate. All the reactions were carried out as duplicate determinations in microtiter plates with 96 wells (Half Area Plates, Costar No 3696), measuring the change in absorption owing to the formation of the reaction product at the wavelength specified hereinafter in a Multiskan Ascent Elisa Reader (Lab Systems, Finland).
In order to measure the GPa enzymic activity in the reverse direction, the general method of Engers et al. (Engers H D, Shechosky S, Madsen N B, Can J Biochem 1970 July;48(7):746-754) was used to measure the conversion of glucose 1-phosphate into glycogen and inorganic phosphate, with the following modifications: human glycogen phosphorylase a (for example with 0.76 mg of protein/ml (Aventis Pharma Deutschland GmbH), dissolved in buffer solution E (25 mM β-glycerophosphate, pH 7.0, 1 mM EDTA and 1 mM dithiothreitol) was diluted with buffer T (50 mM Hepes, pH 7.0, 100 mM KCl, 2.5 mM EDTA, 2.5 mM MgCl2.6H2O) and addition of 5 mg/ml glycogen to a concentration of 10 μg of protein/ml. Test substances were prepared as 10 mM solution in DMSO and diluted to 50 μM with buffer solution T. To 10 μl of this solution were added 10 μl of 37.5 mM glucose, dissolved in buffer solution T, and 5 mg/ml glycogen, plus 10 μt of a solution of human glycogen phosphorylase a (10 μg of protein/ml) and 20 μl of glucose 1-phosphate, 2,5 mM. The baseline glycogen phosphorylase a activity in the absence of test substance was determined by adding 10 μl of buffer solution T (0.1% DMSO). The mixture was incubated at room temperature for 40 minutes, and the liberated […] was measured by the general method of Drueckes et al. (Drueckes P, Schinzel R, Palm D, Anal Biochem 1995 Sep. 1;230(1):173-177) with the following modifications: 50 μl of a stop solution of 7.3 mM ammonium molybdate, 10.9 mM zinc acetate, 3.6% ascorbic acid, 0.9% SDS are added to 50 μl of the enzyme mixture. After incubation at 45° C. for 60 minutes, the absorption at 820 nm was measured. To determine the background absorption, in a separate mixture the stop solution was added immediately after addition of the glucose 1-phosphate solution. […]

Row | Structure (SMILES) | IC50 [1] | melting point
1 | O=C(NC(=O)c1cc(F)c(F)cc1Cl)Nc1ccccc1C(=O)N1CCC1C(=O)O (stereo not shown) [Example 5] | 30 nM | 99 °C
2 | COC(=O)[C@H]1CCCN1C(=O)c1ccccc1NC(=O)NC(=O)c1cc(F)c(F)cc1Cl [Example 4] | 570 nM | 
3 | O=C(NC(=O)c1cc(F)c(F)cc1Cl)Nc1ccccc1C(=O)N1CC(F)(F)CC1C(=O)O (stereo not shown) [Example 6] | 1400 nM | 102 °C
4 | O=C(NC(=O)c1cc(F)c(F)cc1Cl)Nc1ccccc1C(=O)N1C2CCCCC2C[C@H]1C(=O)O (stereo partly shown) [Example 7] | 4000 nM | 125 °C

The remaining lines, values ahead:

Row | IC50 [1] | melting point | Structure (SMILES)
5 | 30 nM | 123.5 °C | O=C(NC(=O)c1cc(F)c(F)cc1Cl)Nc1ccccc1C(=O)N1CCC[C@@H]1C(=O)O [Example 1, R-1-{2-[3-(2-Chloro-4,5-difluorobenzoyl)ureido]benzoyl}pyrrolidine-2-carboxylic acid]
6 | 2100 nM | 128.4 °C | O=C(NC(=O)c1cc(F)c(F)cc1Cl)Nc1ccccc1C(=O)N1CCC[C@H]1C(=O)O [Example 2]
7 | 120 nM | 193.1 °C | O=C(NC(=O)c1cc(F)c(F)cc1Cl)Nc1ccccc1C(=O)N1CCCC1C(=O)O (stereo not shown) [Example 3]
